Several values for one entry are separate records, joined by “and”; a condition that tells them apart may be missing. Identical values can stand only once.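 Method: 48-hour compound exposure of cells in 96-well plates, five concentrations, linear interpolation of endpoints. GI50: concentration for 50% inhibition of growth. The concentration for full growth arrest is given as TGI.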

Holding throughout (test): inhibition of tumour cell growth, NCI panel, 48 h
Assay [1] relates to OVCAR-4 ovarian.
Assay [2] relates to NCI/ADR-RES ovarian.
Assay [3] has as its system HOP-62 NSCLC.
The subject of assay [4] is BT-549 breast.
For assay [5], the system named is LOX IMVI melanoma.
Assay [6] has as its system A549 NSCLC.
For assay [7], the system named is EKVX NSCLC.
In assay [8] the test system is HCC-2998 colon.
The test system of assay [9] is A498 renal.
Assay [10] concerns OVCAR-3 ovarian.

For `O=C1CC(c2ccc(N3CCOCC3)cc2)(c2ccsc2)NC(=O)C1Sc1ccccc1Cl` (stereo unspecified), the GI50 in assay [1] is more than 100 µM; in assay [2], 46.7 µM; in assay [3], 60.3 µM; in [4] it was 16.7 µM; in assay [5], 31.5 µM; in assay [6], more than 100 µM. The GI50 in assay [7] was more than 100 µM; in [8], more than 100 µM; in assay [9] it was 10.4 µM; in [10] it was 67 µM. Further, the TGI in assay [1], in assay [2], in assay [3], in assay [4], in [5] and in assay [6] was more than 100 µM each time. Moreover, the TGI in assay [7], in assay [8], in assay [9] and in assay [10] was more than 100 µM each time.

For `O=c1c2cccc(Cl)c2sc2c(NCCCNCCO)nc3ccccc3c12`, the GI50 in assay [1] was 5.43 µM; in assay [2], 2.98 µM; in [3] it was 2.87 µM; in [4] it was 14.8 µM; in assay [5], 1.41 µM; in assay [6], 1.31 µM. Besides, the GI50 in assay [7] is 3.4 µM; in [8] it was 1.62 µM; in assay [9] it was 5.64 µM; in assay [10], 2.28 µM. The TGI in assay [1] was 19.6 µM; in assay [2] it was 12.1 µM; in assay [3], 17.1 µM; in [4], 30.6 µM; in assay [5] it was 2.77 µM; in assay [6] it was 3.39 µM. Besides, the TGI in assay [7] came out at 17.5 µM; in [8], 3.02 µM; in assay [9], 19.3 µM; in assay [10], 6.19 µM.

For `COC(=O)NC1C(C)OC(OC2C/C=C(/C)C3C=CC4C(OC5CC(OC6CC(O)C(OC7CC(O)C(OC)C(C)O7)C(C)O6)C(O)C(C)O5)C(C)CC(C)C4C3(C)/C(O)=C3\C(=O)OC4(CC(C)C(CO)=CC4/C=C\2C)C3=O)CC1(C)[N+](=O)[O-]` (stereo unspecified), the TGI in assay [1] was 11.8 µM; in [2] it was more than 100 µM; in assay [3] it was 18.4 µM and 46.3 µM; in assay [4] it was 41.4 µM; in assay [5], 28 µM; in assay [6], 50 µM and 58.5 µM. The TGI was 50 µM and 19.3 µM in assay [7]; 31.6 µM in assay [8]; 22.8 µM and 29.8 µM in assay [9]; 21 µM and 19.4 µM in [10]. Besides, the GI50 in assay [2] was more than 50 µM; in [3], 9.62 µM; in assay [6] it was 25.7 µM; in [7], 16.7 µM; in assay [9] it was 9.82 µM; in [10], 9.64 µM.

The values above are taken from PubChem BioAssay (NCI).
